Laboratory results: paper PMC11637438, “Chickpea NCR13 disulfide cross-linking variants exhibit profound differences in antifungal activity and modes of action” (PLOS Pathogens, 2024)
Where two headings read alike, the source gives them in different places. Ends that are not written are not given here. Peptide text beside a SMILES is read from it.

Tested on: B. cinerea
Format: cell-based, Botrytis cinerea
Details: for fold reduction in antifungal activity relative to NCR13_CS: reduced peptides
Protocol: B. cinerea strain T4 was cultured in V8 medium for 3 weeks at 25°C. Fungal spores were collected by flooding the fungal growth plates with water and scraped using a sterile spreader. The spore suspension was filtered through two layers of Miracloth, followed by centrifugation at 12,000 g for 2 minutes (min) and subsequently washed twice with sterile water. Lastly, fungal spores were resuspended in Synthetic Fungal Media (SFM). The spore suspension was adjusted to the desired spore density of about 10^5 spores/mL using a hemocytometer. Fusarium virguliforme (F. virguliforme) was grown and maintained regularly in potato dextrose agar (PDA) (Difco Laboratories) medium. Two weeks old F. virguliforme plates were used to collect spores as described above for B. cinerea followed by centrifugation and washing steps. Spores were counted using a hemocytometer and adjusted to the final concentration of 10^5 spores/mL in 2X SFM media. Sclerotinia sclerotiorum obtained from the field of pennycress in Illinois was grown on PDA medium at room temperature.
The antifungal activity of NCR13 against fungal pathogens was determined using the resazurin cell viability assay, as described previously. Briefly, 45 μL of each peptide dilution (0, 0.09, 0.1875, 0.375, 0.75, 1.5, 3, and 6 μM) was added to each well of the microtiter plate containing 45 μL (~10^5 spores/mL) of spore suspension. Three biological replicates were used for each treatment and the experiments were repeated three times. Resazurin at 0.1% (w/v) was added to each well after incubation for 48 h. Images were taken at ~24 h. The Minimum Inhibitory Concentration (MIC) for each peptide denotes the lowest concentration at which the peptide halts the growth of fungus evident through a lack of color change from blue to […]. The in vitro antifungal activity of NCR13_PFVs against S. sclerotiorum was determined using a 24-well plate assay as previously described. Mycelial plugs (1 mm in diameter) cut from the growing edge of the two day-old actively growing colony were transferred from PDA media to a series of wells containing 250 μL of SFM.

[1] = B. cinerea, resazurin assay in SFM, ~10^5 spores/mL, resazurin added after 48 h, three biological replicates

Molecule | Minimal Inhibitory Concentration (MIC) [1] | Minimal Inhibitory Concentration (MIC) (48 h) | further results
CC(C)[C@H](NC(=O)[C@H](CCCCN)NC(=O)[C@@H]1CCCN1C(=O)[C@H](CCCCN)NC(=O)[C@H](CCCNC(=N)N)NC(=O)[C@H](CS)NC(=O)[C@H](C)NC(=O)[C@H](Cc1ccccc1)NC(=O)[C@H](CCCCN)NC(=O)[C@@H](N)CCCCN)C(=O)N1CCC[C@H]1C(=O)N[C@@H](CCCCN)C(=O)N[C@@H](CS)C(=O)O [NCR13 active motif] (H-KKFACRKPKVPKC-OH; N-terminus and C-terminus assumed) | 3 µM | – | –
CC[C@H](C)[C@H](NC(=O)[C@H](CS)NC(=O)[C@H](CCCCN)NC(=O)[C@@H]1CCCN1C(=O)[C@@H](NC(=O)[C@H](CCCCN)NC(=O)[C@@H]1CCCN1C(=O)[C@H](CCCCN)NC(=O)[C@H](CCCNC(=N)N)NC(=O)[C@H](CS)NC(=O)[C@H](C)NC(=O)[C@H](Cc1ccccc1)NC(=O)[C@H](CCCCN)NC(=O)[C@H](CCCCN)NC(=O)[C@H](CS)NC(=O)[C@H](C)NC(=O)[C@H](C)NC(=O)[C@H](C)NC(=O)[C@H](C)NC(=O)[C@H](C)NC(=O)[C@H](CS)NC(=O)[C@@H]1CCCN1C(=O)[C@H](CCCCN)NC(=O)[C@@H](N)[C@@H](C)O)C(C)C)C(=O)N[C@@H](CC(N)=O)C(=O)NCC(=O)N[C@@H](Cc1ccccc1)C(=O)N[C@@H](CS)C(=O)N[C@@H](CCCCN)C(=O)N[C@@H](CS)C(=O)N[C@H](C(=O)N[C@@H](CCCNC(=N)N)C(=O)O)C(C)C [NCR13_AlaV1] (H-TKPCAAAAACKKFACRKPKVPKCINGFCKCVR-OH; N-terminus and C-terminus assumed) | – | 6 µM | fold reduction in antifungal activity relative to NCR13_CS (B. cinerea): 2 fold
CC[C@H](C)[C@H](NC(=O)[C@H](CS)NC(=O)[C@H](CCCCN)NC(=O)[C@@H]1CCCN1C(=O)[C@@H](NC(=O)[C@H](CCCCN)NC(=O)[C@@H]1CCCN1C(=O)[C@H](CCCCN)NC(=O)[C@H](CCCNC(=N)N)NC(=O)[C@H](CS)NC(=O)[C@H](C)NC(=O)[C@H](C)NC(=O)[C@H](C)NC(=O)[C@H](C)NC(=O)[C@H](CS)NC(=O)[C@H](CC(=O)O)NC(=O)[C@H](CCCCN)NC(=O)[C@H](CC(=O)O)NC(=O)[C@H](CO)NC(=O)[C@H](CCC(N)=O)NC(=O)[C@H](CS)NC(=O)[C@@H]1CCCN1C(=O)[C@H](CCCCN)NC(=O)[C@@H](N)[C@@H](C)O)C(C)C)C(=O)N[C@@H](CC(N)=O)C(=O)NCC(=O)N[C@@H](Cc1ccccc1)C(=O)N[C@@H](CS)C(=O)N[C@@H](CCCCN)C(=O)N[C@@H](CS)C(=O)N[C@H](C(=O)N[C@@H](CCCNC(=N)N)C(=O)O)C(C)C [NCR13_AlaV2] (H-TKPCQSDKDCAAAACRKPKVPKCINGFCKCVR-OH; N-terminus and C-terminus assumed) | – | > 12 µM | –
CC[C@H](C)[C@H](NC(=O)[C@H](CS)NC(=O)[C@H](C)NC(=O)[C@H](C)NC(=O)[C@H](C)NC(=O)[C@H](CCCCN)NC(=O)[C@@H]1CCCN1C(=O)[C@H](CCCCN)NC(=O)[C@H](CCCNC(=N)N)NC(=O)[C@H](CS)NC(=O)[C@H](C)NC(=O)[C@H](Cc1ccccc1)NC(=O)[C@H](CCCCN)NC(=O)[C@H](CCCCN)NC(=O)[C@H](CS)NC(=O)[C@H](CC(=O)O)NC(=O)[C@H](CCCCN)NC(=O)[C@H](CC(=O)O)NC(=O)[C@H](CO)NC(=O)[C@H](CCC(N)=O)NC(=O)[C@H](CS)NC(=O)[C@@H]1CCCN1C(=O)[C@H](CCCCN)NC(=O)[C@@H](N)[C@@H](C)O)C(=O)N[C@@H](CC(N)=O)C(=O)NCC(=O)N[C@@H](Cc1ccccc1)C(=O)N[C@@H](CS)C(=O)N[C@@H](CCCCN)C(=O)N[C@@H](CS)C(=O)N[C@H](C(=O)N[C@@H](CCCNC(=N)N)C(=O)O)C(C)C [NCR13_AlaV4] (H-TKPCQSDKDCKKFACRKPKAAACINGFCKCVR-OH; N-terminus and C-terminus assumed) | – | > 12 µM | –
CC(C)[C@H](NC(=O)[C@H](CS)NC(=O)[C@H](CCCCN)NC(=O)[C@H](CS)NC(=O)[C@H](C)NC(=O)[C@H](C)NC(=O)[C@H](C)NC(=O)[C@H](C)NC(=O)[C@H](CS)NC(=O)[C@H](CCCCN)NC(=O)[C@@H]1CCCN1C(=O)[C@@H](NC(=O)[C@H](CCCCN)NC(=O)[C@@H]1CCCN1C(=O)[C@H](CCCCN)NC(=O)[C@H](CCCNC(=N)N)NC(=O)[C@H](CS)NC(=O)[C@H](C)NC(=O)[C@H](Cc1ccccc1)NC(=O)[C@H](CCCCN)NC(=O)[C@H](CCCCN)NC(=O)[C@H](CS)NC(=O)[C@H](CC(=O)O)NC(=O)[C@H](CCCCN)NC(=O)[C@H](CC(=O)O)NC(=O)[C@H](CO)NC(=O)[C@H](CCC(N)=O)NC(=O)[C@H](CS)NC(=O)[C@@H]1CCCN1C(=O)[C@H](CCCCN)NC(=O)[C@@H](N)[C@@H](C)O)C(C)C)C(=O)N[C@@H](CCCNC(=N)N)C(=O)O [NCR13_AlaV5] (H-TKPCQSDKDCKKFACRKPKVPKCAAAACKCVR-OH; N-terminus and C-terminus assumed) | – | 12 µM | fold reduction in antifungal activity relative to NCR13_CS (B. cinerea): 4 fold
CC[C@H](C)[C@H](NC(=O)[C@H](CS)NC(=O)[C@H](CCCCN)NC(=O)[C@@H]1CCCN1C(=O)[C@@H](NC(=O)[C@H](CCCCN)NC(=O)[C@@H]1CCCN1C(=O)[C@H](CCCCN)NC(=O)[C@H](CCCNC(=N)N)NC(=O)[C@H](CS)NC(=O)[C@H](C)NC(=O)[C@H](Cc1ccccc1)NC(=O)[C@H](CCCCN)NC(=O)[C@H](CCCCN)NC(=O)[C@H](CS)NC(=O)[C@H](CC(=O)O)NC(=O)[C@H](CCCCN)NC(=O)[C@H](CC(=O)O)NC(=O)[C@H](CO)NC(=O)[C@H](CCC(N)=O)NC(=O)[C@H](CS)NC(=O)[C@@H]1CCCN1C(=O)[C@H](CCCCN)NC(=O)[C@@H](N)[C@@H](C)O)C(C)C)C(=O)N[C@@H](CC(N)=O)C(=O)NCC(=O)N[C@@H](Cc1ccccc1)C(=O)N[C@@H](CS)C(=O)N[C@@H](CCCCN)C(=O)N[C@@H](CS)C(=O)N[C@H](C(=O)N[C@@H](CCCNC(=N)N)C(=O)O)C(C)C [NCR13_CS] (H-TKPCQSDKDCKKFACRKPKVPKCINGFCKCVR-OH; N-terminus and C-terminus assumed) | 3 µM | – | fold decrease in antifungal activity compared to NCR13_PFV1 (B. cinerea): ~33 fold; fold decrease in antifungal activity compared to NCR13_PFV2 (B. cinerea): 2 fold
TKPSQSDKDSKKFASRKPKVPKSINGFSKSVR [NSR13] | Inactive | > 24 µM | –
